Results on 121 compounds are retold here after a melting point compilation (Tetko et al.).

The melting point is the temperature of the solid-liquid transition.

Regarding `CN(C)c1ncnc(Cl)c1N`, the melting point was in the range of 114 to 116 °C.
Next, `Cc1ccc(-c2csc(S)n2)cc1`: 192 to 194 °C.
In the case of `CS(=O)(=O)N1CCN(CCN)CC1` it was 10 to 12 °C.
In the case of `N#Cc1cc2ccccc2o1` it was 33 to 35 °C.
For `Nc1ncc(Cc2cccc(Cl)c2)s1`, the melting point was 99 to 101 °C.
In the case of `Cn1cc([N+](=O)[O-])c(C(=O)O)n1` it was 162 to 164 °C; in that of `NCc1ccn(-c2ccc(F)cc2)n1`, 56 to 58 °C.
In the case of `Nc1ccc(Oc2ccc(F)cc2)cn1` it was 74 to 76 °C.
In the case of `Cc1cc(C(=O)CC#N)c(C)n1CC(F)(F)F` it was 150 to 152 °C.
Take `O=C(CCl)Nc1cc(C2CC2)nn1-c1ccccc1`: the melting point lay in the range of 120 to 122 °C.
Next, `CC(C)Nc1ccccn1`: 41 to 43 °C.
Next, `O=C(O)c1ccc(Oc2ccc(Cl)cc2)c(Cl)c1`: 167 to 169 °C; `COc1ccc(C(N)=NO)c(OC)c1`: 129 to 131 °C.
`O=C1OC(C(O)CO)C(O)=C1O` (stereo unspecified) registered a melting point of 192 to 196 °C.
On to `NC(=O)CO`, for which the melting point lay in the range of 124 to 126 °C.
In turn, `Cc1c(NC(=O)CCCl)cccc1[N+](=O)[O-]` came in with a melting point of 131 to 133 °C.
Next, `Cc1cc(O)cc(C(C)C)c1`: 49 to 51 °C.
Next, `COc1ccc(CC(=O)NO)cc1`: 159 to 161 °C.
Regarding `O=C(O)CNC(=O)c1ccc(Cl)c([N+](=O)[O-])c1`, the melting point fell in the range of 190 to 192 °C.
In the case of `NC(=S)c1cnc2ccccn12` it was 214 to 216 °C; in that of `FC(F)(F)c1ccc2sc(C3CCNCC3)nc2c1`, 71 to 73 °C; in that of `CCOC(=O)c1c[nH]n(C)c1=N`, 95 to 97 °C.
Next, `Cc1ccc(CN2C(=O)CCC2C(=O)O)cc1` (stereo unspecified): 128 to 130 °C.
As for `c1n[nH]c2cc3c(cc12)OCO3`, the melting point lay within 199 to 201 °C.
Next, `Cc1[nH]c2ccccc2c1C(=O)C(C)Cl` (stereo unspecified): 133 to 135 °C; `CC(NS(=O)(=O)c1ccccc1C(F)(F)F)C(=O)O` (stereo unspecified): 105 to 107 °C; `c1nnc(C2CC2)n1C1CC1`: 74 to 76 °C.
Consider `CN(C)c1ccc(CNC(=O)CCl)cc1`, for which the melting point lay in the range of 59 to 61 °C.
`O=S(=O)(c1cccs1)N1CCNCC1` returned a melting point of 98 to 100 °C.
In turn, `O=C(O)C1CCCN(C(=O)Nc2ccccc2F)C1` (stereo unspecified) came in with a melting point of 139 to 141 °C.
Take `CCc1ccc(O)c(C(=O)O)c1`: the melting point lay in the range of 118 to 120 °C.
In the case of `O=C(O)C1(c2cccs2)CCCCC1` it was 146 to 148 °C; in that of `CC(Oc1ccc(-c2ccccc2)cc1)C(=O)O` (stereo unspecified), 159 to 161 °C.
For the compound `Cc1oc(C)c(C(=O)O)c1Br`, the melting point lay within 189 to 191 °C.
Next, `CC(C)=C(F)C(=O)O`: 64 to 66 °C; `O=C(CCCCl)c1cc(F)ccc1O`: 66 to 68 °C.
Compound `O=C(NCc1nnc2n1CCC2)OCC(F)(F)F` had a melting point of 131 to 133 °C.
The compound `CC(C)CN(C(=O)CCl)c1c(N)n(CC(C)C)c(=O)[nH]c1=O` gave a melting point of 153 to 155 °C.
In the case of `O=C1C(Br)CCN1c1ccc(C(F)(F)F)cc1` (stereo unspecified) it was 63 to 65 °C; in that of `O=C(Nc1ccco1)OCC(F)(F)F`, 78 to 80 °C.
In the case of `O=C(O)CCN1C(=O)COc2ccccc21` it was 168 to 170 °C; in that of `C#CCN1C(=O)COc2ccc(Br)cc21`, 111 to 113 °C; in that of `COc1cc(OC)cc(Oc2ccc(C=O)cc2)c1`, 57 to 59 °C.
`Nc1ccc2c(c1)COC2` came in with a melting point of 89 to 91 °C.
In the case of `CC1=NN(c2ccc(Br)cc2)C(=O)C1` it was 164 to 166 °C; in that of `NNC(=O)CSc1nnc(-c2ccccc2)n1-c1ccccc1`, 242 to 244 °C; in that of `Fc1ccc(OCc2ccc3ccccc3n2)c(Br)c1`, 124 to 126 °C.
Consider `O=C(O)c1ccc(NC(=O)C23CC4CC(CC(C4)C2)C3)cc1`, for which the melting point lay within 284 to 286 °C.
In the case of `CC1CN(c2ccc(C(=O)O)cn2)CC(C)O1` (stereo unspecified), the melting point lay within 219 to 221 °C.
Turning to `CCOC(=O)C1CN(Cc2ccccc2)CCC1=O` (stereo unspecified), the melting point lay within 161 to 163 °C.
Compound `O=S(=O)(c1ccc2c(c1)CCCC2)N1CCNCC1` returned a melting point of 110 to 112 °C.
With `Clc1ccc(-n2cccn2)c(Cl)c1`, the melting point lay within 34 to 36 °C.
In the case of `Nc1c(-c2ccc(F)cc2)nc2sccn12` it was 137 to 139 °C; in that of `O=C1NC2(CCNCC2)NC12CCCCC2`, 276 to 278 °C; in that of `Cc1cc(Br)c(NC(=O)CCl)c(Br)c1`, 177 to 178 °C.
With `COc1ccc(Cl)c(N=C=O)c1`, the melting point fell in the range of 38 to 40 °C.
The compound `Nc1cc(S(N)(=O)=O)ccc1F` had a melting point of 134 to 136 °C.
In the case of `ClCc1nnc(-c2c(Cl)cccc2Cl)o1`, the melting point fell in the range of 46 to 48 °C.
In the case of `O=C(O)c1oc2ccccc2c1CSc1nnc[nH]1` it was 159 to 161 °C.
Regarding `COC(=O)c1ccc(N)cc1F`, the melting point lay within 109 to 111 °C.
In the case of `N#Cc1cccc(C(=O)NNC(=O)CCl)c1` it was 199 to 201 °C; in that of `NC(=O)CCN1C(=O)NC2(CCCC2)C1=O`, 150 to 152 °C; in that of `Nc1cccc(C(=O)N2CCOCC2)c1`, 82 to 84 °C.
In the case of `Fc1ccccc1-c1nnc(S)[nH]1` it was 154 to 156 °C; in that of `COC(=O)c1c(C(=O)OC)c(-c2cccc(N)c2)n2c1CCC2`, 166 to 168 °C.
The compound `O=S(=O)(Nc1cn[nH]c1)c1ccccc1F` gave a melting point of 186 to 188 °C.
Next, `O=C(O)CN1C(=O)CCCc2sccc21`: 138 to 140 °C; `CC1(c2ccccc2)CC(=O)NC1=O` (stereo unspecified): 79 to 81 °C.
Next, `C=CC(=O)Nc1ccccc1`: 103 to 106 °C.
In the case of `Cc1cc(CO)c2ccccc2n1` it was 144 to 146 °C; in that of `CC1CCN(C(=O)c2ccc(N)cc2)CC1`, 118 to 120 °C; in that of `CN(C)c1ccc(C(N)=S)cc1`, 117 to 119 °C.
With `Clc1nc2cccnc2nc1Cl`, the melting point is 143 to 145 °C.
Compound `O=C(NC(Cc1c[nH]c2ccccc12)C(=O)O)c1ccc(F)cc1` (stereo unspecified) showed a melting point of 95 to 98 °C.
Next, `O=C(O)c1cc(-c2ccccc2)nc2c1cnn2Cc1ccncc1`: 279 to 281 °C.
In the case of `Oc1[nH]nc2c1CC(c1ccccc1)CC2` (stereo unspecified) it was 269 to 271 °C; in that of `CC(C)c1n[nH]c(-c2ccccc2N)n1`, 125 to 127 °C.
Compound `O=C(O)CCSCc1nc2sc3c(c2c(=O)[nH]1)CCC3` registered a melting point of 227 to 229 °C.
`N#Cc1ccnc(S)c1` came in with a melting point of 227 to 229 °C.
In the case of `CC(Cl)C(=O)Nc1ccccc1Br` (stereo unspecified) it was 75 to 77 °C; in that of `c1ccc(-c2nnco2)cc1`, 35 to 37 °C.
Next, `CC(=O)C(C#N)c1c(Cl)cccc1Cl` (stereo unspecified): 49 to 51 °C.
In the case of `COC(=O)COc1cc(C(=O)O)ccc1OC` it was 144 to 146 °C; in that of `O=C(O)c1nc(-c2cccs2)n(-c2ccccc2)n1`, 199 to 201 °C; in that of `COc1cc(C(=O)O)cc(NC(C)=O)c1OC`, 229 to 231 °C.
Turning to `OCc1cc2ccc(Br)cc2[nH]1`, the melting point lay within 115 to 117 °C.
Next, `O=C(O)c1cc(F)c(F)c(S(=O)(=O)Cl)c1`: 154 to 156 °C.
Next, `O=C1COc2ncc(Br)cc2N1`: 256 to 258 °C; `O=c1c(Oc2ccccc2)coc2cc(O)ccc12`: 197 to 199 °C; `O=C(O)c1ccc(-n2cccn2)c(F)c1`: 235 to 237 °C.
Next, `N#Cc1cc2c(nc1N)CCCC2`: 195 to 197 °C.
For the compound `O=C(O)c1ccc(F)c2ccsc12`, the melting point lay in the range of 230 to 232 °C.
Next, `COc1cccc(CO)c1OC(F)F`: 77 to 79 °C.
Next, `Sc1nc(C2CC2)nc2ccccc12`: 219 to 221 °C; `NS(=O)(=O)CCSc1ccccc1`: 106 to 108 °C; `Cc1cc(N)ccc1S(N)(=O)=O`: 169 to 171 °C.
Next, `COc1ccc(-c2cc(C(=O)NN)[nH]n2)cc1`: 205 to 220 °C; `O=C(O)Cc1cc2c(cc1Br)OCCO2`: 220 to 222 °C; `FC(F)(F)c1ccc(-n2nnnc2CCl)cc1`: 56 to 58 °C.
In turn, `CCN(CC)S(=O)(=O)c1cc(N)ccc1C` displayed a melting point of 166 to 169 °C.
For the compound `CCOC(=O)c1ccc(S(=O)(=O)N2CCCC2C(=O)O)o1` (stereo unspecified), the melting point lay within 124 to 126 °C.
Next, `O=C(O)C1(S(=O)(=O)c2ccc(Cl)cc2)CC1`: 185 to 187 °C.
Regarding `O=[N+]([O-])c1ccc(-c2noc(Cl)n2)cc1`, the melting point was 118 to 120 °C.
As to `CC(C)CC1CCC(=O)NC1=O` (stereo unspecified), the melting point was 129 to 131 °C.
Next, `O=C(O)c1cc(Cl)ccc1OC(F)F`: 109 to 111 °C; `COc1ccc(Cn2cnc(N)n2)cc1`: 129 to 131 °C; `COc1ccc(C(=O)NC(C(=O)O)C(C)C)cc1` (stereo unspecified): 163 to 165 °C.
Next, `Cn1ccc(C(=O)NC2(C(=O)O)CCCCCC2)cc1=O`: 242 to 244 °C.
`Cc1nn(-c2ccc(C(F)(F)F)cn2)c(C)c1CC(=O)O` had a melting point of 142 to 144 °C.
In the case of `Cc1ccc(N)c(C)c1S(=O)(=O)NC1CC1` it was 96 to 98 °C; in that of `CN(C)S(=O)(=O)c1cn(C)cn1`, 119 to 121 °C.
For the compound `CS(=O)(=O)CCc1ccc(N)cc1`, the melting point was in the range of 93 to 95 °C.
Next, `CCC(O)CNc1ccccc1` (stereo unspecified): 48 to 50 °C; `CC(C)(C(=O)O)c1ccc2ccccc2c1`: 146 to 148 °C.
Compound `CCS(=O)(=O)N1CCc2cc(C(=O)CCl)ccc21` had a melting point of 231 to 233 °C.
In the case of `O=[N+]([O-])c1ccc(Cl)cc1I` it was 62 to 64 °C; in that of `COc1cc(NC(=O)CCCl)cc(OC)c1OC`, 117 to 119 °C; in that of `CNC(=O)c1ccc(NC(=O)CCl)cc1`, 206 to 208 °C.
For the compound `CC(C)(C)CNC(=O)c1ccc(C(=O)O)cc1`, the melting point lay within 201 to 203 °C.
`Sc1nnc(-c2ccccc2Br)o1` showed a melting point of 200 to 202 °C.
In the case of `CCn1c(N)cc(=O)[nH]c1=O` it was 125 to 127 °C.
